One test has as its target 5HT7 receptor (Homo sapiens, UniProt P34969). Description: 5HT7 agonist functionality (EC50 agonist). The format is cell-based. To be noted: screening data, agonist reference hit.
Test [1] deals with T1, Cloned Human Serotonin Receptor, Subtype 7 (h5HT7), expressed in CHO cells (Homo sapiens, UniProt P34969).
T1 construct: purchased PerkinElmer 6120512; host or cells: CHO cells
As to the kind of experiment: Radioligand binding assay, [125I]LSD, cloned human 5HT7 receptor on Flashplate. The procedure:
The protocol assay was essentially the recommended protocol in the Technical Data Sheet by PerkinEmer Life and Analytical Sciences. The Mass membrane protein/well was typically 12 μg and the Receptor/well was about 9-10 fmoles. The Flashplate were let equilibrate at room temperature for one hour before the addition of the components of the assay mixture. The binding buffer was: 50 mM Tris-HCl, pH 7.4, containing 10 mM MgCl2, 0.5 mM EDTA and 0.5% BSA. […] Nonspecific binding was determined with 50 μM of Clozapine. The assay volume was 25 μl. TopSeal-A were applied onto Flashplate microplates and they were incubated at room temperature for 240 minutes in darkness.

Setting [2] is: 5HT7 binding experiments on the screening selection.

Molecules are shown by their SMILES. Like-named read-outs stand apart in the source and are kept apart here.

T1 sequence (P34969 whole entry): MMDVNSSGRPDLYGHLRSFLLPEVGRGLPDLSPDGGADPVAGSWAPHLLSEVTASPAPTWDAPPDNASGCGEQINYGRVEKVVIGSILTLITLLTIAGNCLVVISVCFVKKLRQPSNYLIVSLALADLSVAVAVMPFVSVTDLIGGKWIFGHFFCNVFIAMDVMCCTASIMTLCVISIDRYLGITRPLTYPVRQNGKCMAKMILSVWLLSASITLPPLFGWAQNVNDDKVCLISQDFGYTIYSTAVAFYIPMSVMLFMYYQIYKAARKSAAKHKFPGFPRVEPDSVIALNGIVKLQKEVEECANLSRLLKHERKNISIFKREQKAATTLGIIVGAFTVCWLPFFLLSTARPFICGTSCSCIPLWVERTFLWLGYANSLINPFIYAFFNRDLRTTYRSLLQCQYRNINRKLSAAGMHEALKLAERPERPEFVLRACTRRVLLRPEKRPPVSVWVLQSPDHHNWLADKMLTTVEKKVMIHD
5HT7 receptor, sequence (P34969 whole entry): as above

By EC50 is commonly meant the concentration needed to bring the measured effect to its halfway point. `COc1ccc(C(C)C)cc1CN1CCN(c2cccc3[nH]ccc23)CC1` [Ex 29, 4-(4-(5-isopropyl-2-methoxybenzyl)piperazin-1-yl)-1H-indole] came in with an EC50 on 5HT7 receptor of 6.62 nM. The “affinity for the 5HT7 receptor (in words)” value (shortened to “affinity”) in test [1] is “good affinity”.
Take `COc1ccccc1N1CCN(CCC(=O)Nc2ccc3c(c2)CCC3)CC1` [f, N-(2,3-dihydro-1H-inden-5-yl)-3-(4-(2-methoxyphenyl)piperazin-1-yl)propanamide]: the “affinity” value in test [1] (setting [2]) was “good affinity”.
As for `O=c1[nH]c2ccccc2n1C1=CCN(CCCOc2ccccc2)CC1` [j, 1-(1-(3-phenoxypropyl)-1,2,3,6-tetrahydropyridin-4-yl)-1H-benzo[d]imidazol-2(3H)-one], the “affinity” value in test [1] is listed as “good affinity”.
`O=c1[nH]c2ccccc2n1C1=CCN(CCOc2ccccc2)CC1` [k, 1-(1-(2-phenoxyethyl)-1,2,3,6-tetrahydropyridin-4-yl)-1H-benzo[d]imidazol-2(3H)-one]: in test [1] (setting [2]), the “affinity” value is recorded as “good affinity”.
With `O=C(c1cccs1)C1CN2CCC1CC2` (stereo not drawn) [l, quinuclidin-3-yl(thiophen-2-yl)methanone], the “affinity” value in test [1] is on record as “good affinity”.

Values taken from patent US20110183991A1, “5HT7 RECEPTOR LIGANDS AND COMPOSITIONS COMPRISING THE SAME” (LABORATORIOS DEL DR. ESTEVE, S.A., priority 2008, published 2011).
